ChEMBL document CHEMBL1201862, “PubChem BioAssay data set” (2004)
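Test compounds were applied to cells in 96-well plates for 48 hours at 5 doses. GI50 is the concentration that inhibits growth by half.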 Active and inactive are the calls of the source. No stated cut-off is given here; in the data, active = GI50 up to about 1.1 µM and inactive = higher.

Assays:
Assay in all cases: NCI-60 cell line screen, 48 h
786-0 = system: 786-0
A498 = system: A498
A549 = system: A549
ACHN = system: ACHN
BT-549 = system: BT-549
CAKI-1 = system: CAKI-1
CCRF-CEM = system: CCRF-CEM
COLO 205 = system: COLO 205
DU-145 = system: DU-145
EKVX = system: EKVX
HCC 2998 = system: HCC 2998
HCT-116 = system: HCT-116
HCT-15 = system: HCT-15
HL-60 = system: HL-60
HOP-62 = system: HOP-62
HOP-92 = system: HOP-92
HT-29 = system: HT-29
Hs-578T = system: Hs-578T
IGROV-1 = system: IGROV-1
K562 = system: K562
KM12 = system: KM12
LOX IMVI = system: LOX IMVI
M14 = system: M14
MDA-MB-231 = system: MDA-MB-231
MDA-MB-435 = system: MDA-MB-435
MOLT-4 = system: MOLT-4
Malme-3M = system: Malme-3M
NCI-H226 = system: NCI-H226
NCI-H23 = system: NCI-H23
NCI-H460 = system: NCI-H460
NCI-H522 = system: NCI-H522
NCI/ADR-RES = system: NCI/ADR-RES
OVCAR-3 = system: OVCAR-3
OVCAR-4 = system: OVCAR-4
OVCAR-5 = system: OVCAR-5
OVCAR-8 = system: OVCAR-8
PC-3 = system: PC-3
RPMI-8226 = system: RPMI-8226
RXF 393 = system: RXF 393
SF-268 = system: SF-268
SF-295 = system: SF-295
SK-MEL-28 = system: SK-MEL-28
SK-MEL-2 = system: SK-MEL-2
SK-MEL-5 = system: SK-MEL-5
SK-OV-3 = system: SK-OV-3
SNB-19 = system: SNB-19
SNB-75 = system: SNB-75
SR = system: SR
SW-620 = system: SW-620
T47D = system: T47D
TK-10 = system: TK-10
U-251 = system: U-251
UACC-257 = system: UACC-257
UACC-62 = system: UACC-62
UO-31 = system: UO-31
MCF7 = system: MCF7
SF-539 = system: SF-539
SN12C = system: SN12C

Measured: GI50

O=C(O)CCC(NC(=O)c1ccc(Oc2nc3ccccc3nc2C(=O)O)cc1)C(=O)O (stereo unspecified)
> 100 µM: HCT-15
inactive: 786-0 > 100 µM | A498 > 100 µM | A549 > 100 µM | ACHN > 100 µM | BT-549 33.3 µM | CAKI-1 > 100 µM | CCRF-CEM > 100 µM | COLO 205 > 100 µM | DU-145 > 100 µM | EKVX > 100 µM | HCC 2998 > 100 µM | HCT-116 > 100 µM | HL-60 > 100 µM | HOP-62 > 100 µM | HOP-92 > 100 µM | HT-29 > 100 µM | Hs-578T > 100 µM | IGROV-1 > 100 µM | K562 > 100 µM | KM12 > 100 µM | LOX IMVI > 100 µM | M14 > 100 µM | MDA-MB-231 > 100 µM | MDA-MB-435 > 100 µM | MOLT-4 > 100 µM | Malme-3M > 100 µM | NCI-H226 > 100 µM | NCI-H23 > 100 µM | NCI-H460 > 100 µM | NCI-H522 > 100 µM | NCI/ADR-RES > 100 µM | OVCAR-3 > 100 µM | OVCAR-4 > 100 µM | OVCAR-5 > 100 µM | OVCAR-8 > 100 µM | PC-3 > 100 µM | RPMI-8226 > 100 µM | RXF 393 > 100 µM | SF-268 > 100 µM | SF-295 > 100 µM | SK-MEL-28 > 100 µM | SK-MEL-2 > 100 µM | SK-MEL-5 > 100 µM | SK-OV-3 > 100 µM | SNB-19 > 100 µM | SNB-75 > 100 µM | SR > 100 µM | SW-620 > 100 µM | T47D > 100 µM | TK-10 > 100 µM | U-251 > 100 µM | UACC-257 > 100 µM | UACC-62 > 100 µM | UO-31 > 100 µM

COc1ccc(OC)c([N+](=O)[O-])c1-c1nc2sc(C)c(C)n2c1/C=N/N=C(N)N
> 100 µM: HCT-15
inactive: 786-0 > 100 µM | A498 > 100 µM | A549 > 100 µM | ACHN > 100 µM | BT-549 25.9 µM | CAKI-1 > 100 µM | CCRF-CEM 50.7 µM | COLO 205 29.9 µM | DU-145 > 100 µM | EKVX > 100 µM | HCC 2998 46.3 µM | HCT-116 > 100 µM | HL-60 25.6 µM | HOP-62 > 100 µM | HOP-92 61 µM | HT-29 43.4 µM | Hs-578T 48.3 µM | IGROV-1 27.3 µM | K562 33.3 µM | KM12 20.9 µM | LOX IMVI 49 µM | M14 76.7 µM | MCF7 24 µM | MDA-MB-231 76.7 µM | MDA-MB-435 43.1 µM | MOLT-4 13.9 µM | Malme-3M 60.7 µM | NCI-H226 > 100 µM | NCI-H23 > 100 µM | NCI-H460 91.6 µM | NCI-H522 41.8 µM | NCI/ADR-RES > 100 µM | OVCAR-3 > 100 µM | OVCAR-4 95.7 µM | OVCAR-5 > 100 µM | OVCAR-8 > 100 µM | PC-3 40.8 µM | RPMI-8226 32.4 µM | RXF 393 > 100 µM | SF-268 45.6 µM | SF-295 84.1 µM | SF-539 > 100 µM | SK-MEL-28 54.5 µM | SK-MEL-2 21.3 µM | SK-MEL-5 34.5 µM | SN12C > 100 µM | SNB-19 36.3 µM | SR 62.4 µM | SW-620 66.4 µM | T47D 23.4 µM | TK-10 > 100 µM | U-251 49.7 µM | UACC-257 > 100 µM | UACC-62 45.7 µM | UO-31 > 100 µM
